# The source made the active and inactive calls. No cut-off for these calls is given here.
# Key:
# HeLa = assay: Antiproliferative activity against human HeLa cells; type: functional, cell-based
# [1] = molecular target: T1, Indoleamine 2,3-dioxygenase 1 (Homo sapiens, UniProt P14902); assay: Inhibition of recombinant human IDO1 in HeLa cells at 100 nM relative to control; type: cell-based
# Target sequence in this assay (P14902 whole entry, looked up): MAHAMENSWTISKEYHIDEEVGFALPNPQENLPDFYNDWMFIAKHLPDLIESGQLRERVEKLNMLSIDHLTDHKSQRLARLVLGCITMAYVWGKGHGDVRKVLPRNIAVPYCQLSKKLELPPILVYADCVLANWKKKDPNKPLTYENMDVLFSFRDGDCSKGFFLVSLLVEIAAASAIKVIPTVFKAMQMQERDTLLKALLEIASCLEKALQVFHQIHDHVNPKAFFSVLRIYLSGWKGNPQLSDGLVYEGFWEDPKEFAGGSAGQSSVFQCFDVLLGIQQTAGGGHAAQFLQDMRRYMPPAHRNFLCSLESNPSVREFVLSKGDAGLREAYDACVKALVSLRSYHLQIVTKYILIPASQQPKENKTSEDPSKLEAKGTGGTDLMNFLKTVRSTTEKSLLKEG
# [2] = molecular target: T2, Indoleamine 2,3-dioxygenase 2 (Homo sapiens) (UniProt Q6ZQW0); assay: Inhibition of recombinant human IDO2 in HeLa cells at […] relative to control; type: cell-based
# T2 sequence (whole entry): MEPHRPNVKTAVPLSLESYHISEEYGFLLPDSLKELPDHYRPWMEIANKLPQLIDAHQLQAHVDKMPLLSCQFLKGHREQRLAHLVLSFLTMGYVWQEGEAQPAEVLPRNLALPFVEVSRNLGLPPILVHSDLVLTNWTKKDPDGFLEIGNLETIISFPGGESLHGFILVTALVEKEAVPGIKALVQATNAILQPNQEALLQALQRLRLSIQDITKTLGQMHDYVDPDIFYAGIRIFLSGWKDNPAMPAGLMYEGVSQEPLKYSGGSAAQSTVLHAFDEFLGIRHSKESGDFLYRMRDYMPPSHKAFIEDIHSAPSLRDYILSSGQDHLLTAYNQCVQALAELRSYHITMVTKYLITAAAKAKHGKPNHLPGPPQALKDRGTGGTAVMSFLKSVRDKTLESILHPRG
# [3] = molecular target: T2, Indoleamine 2,3-dioxygenase 2 (Homo sapiens); assay: Inhibition of recombinant human IDO2 in HeLa cells at 100 nM relative to control; type: cell-based
# Mus musculus [4] = assay: Antiarthritic activity against collagen-induced arthritis DBA/1J mouse model assessed as decrease in inflammation at 100 mg/kg, ip administered from day 57 to 74 post CFA injection and measured every 3 days by H and E staining method; type: functional, organism-based; settings: time 17.0 day
# Mus musculus [5] = assay: Antiarthritic activity against collagen-induced arthritis DBA/1J mouse model assessed as decrease in IL-33 level at 50 to 100 mg/kg, ip administered from day 57 to 74 post CFA injection and measured every 3 days by immunohistochemical staining method; type: functional, organism-based; settings: dose 50-100 mg/kg, time 17.0 day
# Mus musculus [6] = assay: Antiinflammatory activity against xylene-induced ear swelling ICR mouse model assessed as swelling rate at 100 mg/kg, IG measured after 1 hr (Activity = 58.21 +/- 12.79%); type: functional
# [7] = Metabolic stability in human liver microsome assessed as binding constant; type: ADME; settings: microsomes
# Rattus norvegicus [8] = assay: Antiarthritic activity against adjuvant arthritis-induced po dosed Sprague-Dawley rat model assessed as decrease in bone erosion of cartilage administered from day 21 to 36 post CFA injection and measured every 3 days by H and E staining method; type: functional, organism-based; settings: dose 50-100 mg/kg, time 15.0 day, DDE = dose-dependent effect
# Rattus norvegicus [9] = assay: Antiarthritic activity against adjuvant arthritis-induced Sprague-Dawley rat model assessed as decrease in IL-6 level at 30 to 120 mg/kg, po administered from day 21 to 36 post CFA injection and measured every 3 days; type: functional, organism-based; settings: dose 30-120 mg/kg, time 15.0 day
# Rattus norvegicus [10] = assay: Antiarthritic activity against adjuvant arthritis-induced po dosed Sprague-Dawley rat model assessed as decrease in pannus formation administered from day 21 to 36 post CFA injection and measured every 3 days by H and E staining method; type: functional, organism-based; settings: dose 50-100 mg/kg, time 15.0 day, DDE = dose-dependent effect
# Mus musculus [11] = assay: Antiarthritic activity against collagen-induced arthritis DBA/1J mouse model assessed as decrease in IL-18 level at 50 to 100 mg/kg, ip administered from day 57 to 74 post CFA injection and measured every 3 days by immunohistochemical staining method; type: functional, organism-based; settings: dose 50-100 mg/kg, time 17.0 day
# Rattus norvegicus [12] = assay: Antiarthritic activity against adjuvant arthritis-induced Sprague-Dawley rat model assessed as decrease in index score at 30 to 120 mg/kg, po administered from day 21 to 36 post CFA injection and measured every 3 days; type: functional, organism-based; settings: dose 30-120 mg/kg, time 15.0 day
# Mus musculus [13] = assay: Antiarthritic activity against collagen-induced arthritis DBA/1J mouse model assessed as increase in cartilage at 100 mg/kg, ip administered from day 57 to 74 post CFA injection and measured every 3 days by H and E staining method; type: functional, organism-based; settings: time 17.0 day
# [14] = AUC(0 to infinity) in Sprague-Dawley rat at 1 mg/kg, iv; type: ADME, organism-based; design: time infinity, dose 1 mg/kg, route iv; settings: in vivo
# [15] = molecular target: T1, Indoleamine 2,3-dioxygenase 1; assay: Inhibition of human IDO1
# Target sequence in this assay (P14902 whole entry): as the sequence (P14902 whole entry, looked up) above
# [16] = AUC(0 to infinity) in Sprague-Dawley rat at 10 mg/kg, po; type: ADME, organism-based; design: time infinity, dose 10 mg/kg, route po; settings: in vivo
# [17] = Metabolic stability in human liver microsome assessed as intrinsic clearance; type: ADME; settings: microsomes
# [18] = MRT (0 to infinity) in Sprague-Dawley rat at 1 mg/kg, iv; type: ADME, organism-based; settings: in vivo
# [19] = MRT (0 to infinity) in Sprague-Dawley rat at 10 mg/kg, po; type: ADME, organism-based; settings: in vivo
# [20] = Apparent volume of distribution in Sprague-Dawley rat at 1 mg/kg, iv; type: ADME, organism-based; settings: in vivo, read-out: Vz
# [21] = Metabolic stability in human liver microsome assessed as half life; type: ADME; settings: liver microsomes
# [22] = Oral bioavailability in Sprague-Dawley rat at 10 mg/kg; type: ADME, organism-based; settings: in vivo
# Rattus norvegicus [23] = assay: Antiarthritic activity against adjuvant arthritis-induced Sprague-Dawley rat model assessed as decrease in paw swelling at 30 to 120 mg/kg, po administered from day 21 to 36 post CFA injection and measured every 3 days; type: functional, organism-based; settings: dose 30-120 mg/kg, time 15.0 day
# [24] = Tmax in Sprague-Dawley rat at 10 mg/kg, po; type: ADME, organism-based; settings: in vivo
# Mus musculus [25] = assay: Antiinflammatory activity against xylene-induced ear swelling ICR mouse model assessed as swelling inhibition ratio at 100 mg/kg, IG measured after 1 hr; type: functional; design: scale not given: the % may be the effect or the level left
# Rattus norvegicus [26] = assay: Antiarthritic activity against adjuvant arthritis-induced Sprague-Dawley rat model assessed as decrease in TNF-alpha level at 30 to 120 mg/kg, po administered from day 21 to 36 post CFA injection and measured every 3 days; type: functional, organism-based; settings: dose 30-120 mg/kg, time 15.0 day
# [27] = molecular target: T3, Indoleamine 2,3-dioxygenase 2 (Homo sapiens, UniProt Q6ZQW0); assay: Inhibition of human IDO2
# T3 sequence (Q6ZQW0 whole entry): T2 sequence (whole entry)
# Mus musculus [28] = assay: Antiarthritic activity against collagen-induced arthritis ip dosed DBA/1J mouse model assessed as paw swelling administered from day 57 to 74 post CFA injection and measured every 3 days; type: functional, organism-based; settings: dose 25-100 mg/kg, time 17.0 day, DDE = dose-dependent effect
# Mus musculus [29] = assay: Antiarthritic activity against collagen-induced arthritis DBA/1J mouse model assessed as decrease in bone erosion at 100 mg/kg, ip administered from day 57 to 74 post CFA injection and measured every 3 days by H and E staining method; type: functional, organism-based; settings: time 17.0 day
# [30] = Half life in Sprague-Dawley rat at 10 mg/kg, po; type: ADME, organism-based; settings: in vivo
# [31] = Metabolic stability in human liver microsome assessed as intrinsic permeability measured per mg of protein; type: ADME; settings: microsomes
# [32] = Half life in Sprague-Dawley rat at 1 mg/kg, iv; type: ADME, organism-based; settings: in vivo
# Rattus norvegicus [33] = assay: Antiarthritic activity against adjuvant arthritis-induced po dosed Sprague-Dawley rat model assessed as decrease in inflammatory cell infiltration administered from day 21 to 36 post CFA injection and measured every 3 days by H and E staining method; type: functional, organism-based; settings: dose 50-100 mg/kg, time 15.0 day, DDE = dose-dependent effect
# Mus musculus [34] = assay: Antiarthritic activity against collagen-induced arthritis DBA/1J mouse model assessed as paw swelling at 100 mg/kg, ip administered from day 57 to 74 post CFA injection and measured every 3 days; type: functional, organism-based; settings: time 17.0 day
# [35] = Cmax in Sprague-Dawley rat at 10 mg/kg, po; type: ADME, organism-based; design: dose 10 mg/kg, route po; settings: in vivo
# [36] = Clearance in Sprague-Dawley rat at 1 mg/kg, iv; type: ADME, organism-based; settings: in vivo
# [37] = molecular target: T3, Indoleamine 2,3-dioxygenase 2; assay: Inhibition of IDO2 (unknown origin)
# [38] = molecular target: T1, Indoleamine 2,3-dioxygenase 1; assay: Inhibition of IDO1 (unknown origin)
# Target sequence in this assay (P14902 whole entry): as the sequence (P14902 whole entry, looked up) above
compound,measurement,setting,value
O=C(NCc1cn(CCNc2nonc2/C(=N/O)NCc2ccc(F)c(Br)c2)nn1)c1ccc[nH]1,EC50,HeLa,1600 nM
same,inhibition,[1],17%
same,inhibition,[2],0%
O=C(NCc1cn(CCNc2nonc2/C(=N/O)Nc2cc(Br)cc(C(F)(F)F)c2)nn1)c1ccccn1,EC50,HeLa,3630 nM
same,inhibition,[1],5%
same,inhibition,[2],23%
O=C(NCc1cn(CCNc2nonc2/C(=N/O)NCc2cccc(Br)c2)nn1)c1ccc[nH]1,EC50,HeLa,835 nM
same,inhibition,[3],24%
same,inhibition,[1],12%
same,inhibition,[2],70%
O=C(NCc1cn(CCNc2nonc2/C(=N/O)NCc2cccc(Br)c2)nn1)c1ccccn1,EC50,HeLa,633 nM
same,Activity,Mus musculus [4],Active
same,Activity,Mus musculus [5],Active
same,Activity,Mus musculus [6],20.19%
same,K,[7],0.014 min⁻¹
same,Activity,Rattus norvegicus [8],Dde
same,Activity,Rattus norvegicus [9],Active
same,Activity,Rattus norvegicus [10],Dde
same,Activity,Mus musculus [11],Active
same,Activity,Rattus norvegicus [12],Active
same,Activity,Mus musculus [13],Active
same,AUC(0-inf),[14],375 ng·h/mL
same,IC50,[15],411 nM
same,AUC(0-inf),[16],670 ng·h/mL
same,CLH,[17],0.056 mL/min
same,MRT inf,[18],33 min
same,MRT inf,[19],449 min
same,Vd,[20],2.68 L/kg
same,half-life,[21],49.5 min
same,inhibition,[3],41%
same,bioavailability,[22],17.9%
same,Activity,Rattus norvegicus [23],Active
same,Tmax,[24],45 min
same,Activity,Mus musculus [25],65.32%
same,Activity,Rattus norvegicus [26],Active
same,IC50,[27],112 nM
same,Activity,Mus musculus [28],Dde
same,Activity,Mus musculus [29],Active
same,half-life,[30],121 min
same,inhibition,[1],26%
same,Pm,[31],0.25 mL⁻¹
same,inhibition,[2],97%
same,half-life,[32],41.4 min
same,Activity,Rattus norvegicus [33],Dde
same,Activity,Mus musculus [34],Active
same,Cmax,[35],154 ng/mL
same,clearance,[36],44.5 mL/min/kg
O=C(NCc1cn(CCNc2nonc2/C(=N/O)Nc2ccc(F)c(C(F)(F)F)c2)nn1)c1ccccn1,EC50,HeLa,456 nM
same,inhibition,[3],6%
same,inhibition,[1],44%
same,inhibition,[2],40%
Cc1ccc(Br)cc1N/C(=N\O)c1nonc1NCCn1cc(CNC(=O)c2ccccn2)nn1,EC50,HeLa,663 nM
same,inhibition,[3],15%
same,inhibition,[1],18%
same,inhibition,[2],41%
O=C(NCc1cn(CCNc2nonc2/C(=N/O)Nc2ccc(F)cc2)nn1)c1ccccn1,EC50,HeLa,1380 nM
same,inhibition,[3],5%
same,inhibition,[1],4%
same,inhibition,[2],30%
COc1ccc2[nH]c([S+]([O-])Cc3ncc(C)c(OC)c3C)nc2n1 (centres undefined) [TENATOPRAZOLE],IC50,[37],1800 nM
same,IC50,[38],> 100000 nM
O=C(NCc1cn(CCNc2nonc2/C(=N/O)Nc2ccc(F)c(Br)c2)nn1)c1ccc[nH]1,EC50,HeLa,73 nM
same,Activity,Mus musculus [6],27.84%
same,IC50,[15],47 nM
same,inhibition,[3],51%
same,Activity,Mus musculus [25],52.17%
same,IC50,[27],134 nM
same,inhibition,[1],75%
same,inhibition,[2],86%
O=C(NCc1cn(CCNc2nonc2/C(=N/O)Nc2cc(Br)cc(Br)c2)nn1)c1ccccn1,EC50,HeLa,1450 nM
same,inhibition,[3],15%
same,inhibition,[1],11%
same,inhibition,[2],52%
O=C(NCc1cn(CCNc2nonc2/C(=N/O)NCc2ccccc2Br)nn1)c1ccc[nH]1,EC50,HeLa,2850 nM
same,inhibition,[1],1%
same,inhibition,[2],4%
O=C(NCc1cn(CCNc2nonc2/C(=N/O)Nc2ccc(F)c(Cl)c2)nn1)c1ccccn1,EC50,HeLa,234 nM
same,inhibition,[3],16%
same,inhibition,[1],52%
same,inhibition,[2],38%
O=C(NCc1cn(CCNc2nonc2/C(=N/O)NCc2ccccc2Br)nn1)c1ccccn1,EC50,HeLa,4350 nM
same,inhibition,[1],5%
same,inhibition,[2],2%
c1ccc(CCc2ccccc2-c2c[nH]nn2)cc1,IC50,[37],51000 nM

# — ChEMBL document CHEMBL5214930, “Discovery of the First Selective IDO2 Inhibitor As Novel Immunotherapeutic Avenues for Rheumatoid Arthritis” (J Med Chem, 2022)
